Patent publication US8053426B2, “Progesterone receptor antagonists” (Bayer Schering Pharma AG, priority 2006, dated 2011)

Legend:
[1] = target: T1, human progesterone receptor A (PR-A) (Homo sapiens, UniProt P06401); experiment: Antagonistic activity against promegestone, MTV-LUC reporter in SK-N-MC cells stably transfected with PR-A; format: cell-based; conditions: for selectivity in respect of one progesterone receptor isoform: PR-A versus PR-B; for selectivity in respect of one progesterone receptor isoform / Efficacy, PR-A / IC50: SK-N-MC cells; for Efficacy, PR-A / IC50: antagonistic activity vs 0.1 nmol/l promegestone, mean ± SD; for IC50: read-out: Potency IC50, PR-A; for times less potent than 11β-(4-acetylphenyl)-20,20,21,21,21-pentafluoro-17-hydroxy-19-nor-17α-pregna-4,9-dien-3-one at the progesterone receptors: antagonistic potency, figures match the ratio of the PR-A IC50 values
T1 construct: expressed in transfected cells; host or cells: SK-N-MC human neuroblastoma cells, stably transfected with pRChPR-A-neo and pMMTV-LUC
T1 sequence (P06401 1-769 isoform P06401-2): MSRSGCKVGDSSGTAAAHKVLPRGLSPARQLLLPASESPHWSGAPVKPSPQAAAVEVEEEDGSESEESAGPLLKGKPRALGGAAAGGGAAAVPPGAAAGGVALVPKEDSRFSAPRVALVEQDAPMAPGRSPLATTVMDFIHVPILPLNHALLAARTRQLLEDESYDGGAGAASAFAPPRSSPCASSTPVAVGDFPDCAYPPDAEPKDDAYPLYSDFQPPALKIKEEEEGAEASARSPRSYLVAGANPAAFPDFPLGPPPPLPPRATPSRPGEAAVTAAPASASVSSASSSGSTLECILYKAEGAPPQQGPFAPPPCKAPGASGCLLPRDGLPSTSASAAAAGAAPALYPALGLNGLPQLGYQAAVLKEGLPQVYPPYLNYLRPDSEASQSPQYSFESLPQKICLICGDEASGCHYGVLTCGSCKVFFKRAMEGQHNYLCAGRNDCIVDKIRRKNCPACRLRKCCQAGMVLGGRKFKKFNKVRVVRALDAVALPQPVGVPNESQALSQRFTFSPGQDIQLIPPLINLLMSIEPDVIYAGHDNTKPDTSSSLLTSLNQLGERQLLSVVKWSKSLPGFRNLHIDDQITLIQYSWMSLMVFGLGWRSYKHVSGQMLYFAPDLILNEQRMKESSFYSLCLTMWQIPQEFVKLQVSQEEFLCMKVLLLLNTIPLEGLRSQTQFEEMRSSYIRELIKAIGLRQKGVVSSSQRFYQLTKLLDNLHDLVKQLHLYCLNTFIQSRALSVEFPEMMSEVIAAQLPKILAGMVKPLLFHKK
Method: (§1) SK-N-MC cells (human neuroblastoma cells), stably transfected with plasmids, which express human progesterone receptor B (pRChPR-B-neo) or human progesterone receptor A (pRChPR-A-neo) and a reporter construct (pMMTV-LUC), were incubated for 24 hours, either in the absence (negative control) or in the presence of increasing amounts of 11β-[4-(1,2-dihydroxy-ethyl)phenyl]-20,20,21,21,21-pentafluoro-17-hydroxy-19-nor-17α-pregna-4,9-dien-3-one or 20,20,21,21,21-pentafluoro-17-hydroxy-11β-[4-(hydroxyacetyl)-phenyl]-19-nor-17α-pregna-4,9-dien-3-one (0.01 nmol/l, 0.1 nmol/l, 1 nmol/l, 10 nmol/l, 100 nmol/l and 1 μmol/l), in order to determine the agonistic efficacy. As a positive control of reporter gene induction, the cells were treated with the synthetic gestagen promegestone (0.01 nmol/l, 0.1 nmol/l, 1 nmol/l, 10 nmol/l, 100 nmol/l and 1 μmol/l). To determine the antagonistic activity, the cells were treated with 0.1 nmol/l of promegestone and additionally with increasing amounts of 11β-[4-(1,2-dihydroxyethyl)phenyl]-20,20,21,21,21-pentafluoro-17-hydroxy-19-nor-17α-pregna-4,9-dien-3-one or 20,20,21,21,21-pentafluoro-17-hydroxy-11β-[4-(hydroxyacetyl)phenyl]-19-nor-17α-pregna-4,9-dien-3-one (0.01 nmol/l, 0.1 nmol/l, 1 nmol/l, 10 nmol/l, 100 nmol/l and 1 μmol/l). […] The activity of the LUC reporter gene (LUC=luciferase) was determined in the cell lyzates and measured as RLU (relative light units).

[2] = target: T1, human progesterone receptor A (PR-A); experiment: Agonistic activity, MTV-LUC reporter in SK-N-MC cells stably transfected with PR-A; format: cell-based; conditions: 24 hours; for Efficacy, PR-A: relative LUC activity
Method: as §1

[3] = Metabolic stability in human liver microsomes (HLM); format: in vitro ADME; conditions: 60 minutes, 37° C.
Method: Human liver microsomes (HLM) were used to assess the metabolic stability of substances of general formula I.
The incubations were carried out in duplicate with HLM and an NADPH-generating system using a shaker bath at 37° C. The incubation mixture (consisting of cofactor solution, potassium phosphate buffer and microsome preparation) was freshly prepared according to the Table below.
The incubation volume was 0.25 ml. The incubation mixture was preincubated for three minutes at 37° C. The reaction was started by the addition of the test substance (final concentration 50 μM). The reaction was ended after an incubation time of 60 minutes by the addition of 250 μl of methanol and the mixture was then centrifuged to pellet the protein. The samples were stored at −18° C. for subsequent RP-HPLC analysis.
The incubation volume was 0.25 ml. The incubation mixture was preincubated for three minutes at 37° C. The reaction was started by the addition of the test substance (final concentration 10 μM). The reaction was ended after an incubation time of 60 minutes by the addition of 250 μl of methanol and the mixture was then centrifuged to pellet the protein. The samples were stored at −18° C. for subsequent RP-HPLC analysis.

[4] = target: T2, human progesterone receptor B (PR-B) (Homo sapiens, UniProt P06401); experiment: Agonistic activity, MTV-LUC reporter in SK-N-MC cells stably transfected with PR-B; format: cell-based; conditions: 24 hours; for Efficacy, PR-B: relative LUC activity
T2 construct: expressed in transfected cells; host or cells: SK-N-MC human neuroblastoma cells, stably transfected with pRChPR-B-neo and pMMTV-LUC
T2 sequence (P06401 1-933): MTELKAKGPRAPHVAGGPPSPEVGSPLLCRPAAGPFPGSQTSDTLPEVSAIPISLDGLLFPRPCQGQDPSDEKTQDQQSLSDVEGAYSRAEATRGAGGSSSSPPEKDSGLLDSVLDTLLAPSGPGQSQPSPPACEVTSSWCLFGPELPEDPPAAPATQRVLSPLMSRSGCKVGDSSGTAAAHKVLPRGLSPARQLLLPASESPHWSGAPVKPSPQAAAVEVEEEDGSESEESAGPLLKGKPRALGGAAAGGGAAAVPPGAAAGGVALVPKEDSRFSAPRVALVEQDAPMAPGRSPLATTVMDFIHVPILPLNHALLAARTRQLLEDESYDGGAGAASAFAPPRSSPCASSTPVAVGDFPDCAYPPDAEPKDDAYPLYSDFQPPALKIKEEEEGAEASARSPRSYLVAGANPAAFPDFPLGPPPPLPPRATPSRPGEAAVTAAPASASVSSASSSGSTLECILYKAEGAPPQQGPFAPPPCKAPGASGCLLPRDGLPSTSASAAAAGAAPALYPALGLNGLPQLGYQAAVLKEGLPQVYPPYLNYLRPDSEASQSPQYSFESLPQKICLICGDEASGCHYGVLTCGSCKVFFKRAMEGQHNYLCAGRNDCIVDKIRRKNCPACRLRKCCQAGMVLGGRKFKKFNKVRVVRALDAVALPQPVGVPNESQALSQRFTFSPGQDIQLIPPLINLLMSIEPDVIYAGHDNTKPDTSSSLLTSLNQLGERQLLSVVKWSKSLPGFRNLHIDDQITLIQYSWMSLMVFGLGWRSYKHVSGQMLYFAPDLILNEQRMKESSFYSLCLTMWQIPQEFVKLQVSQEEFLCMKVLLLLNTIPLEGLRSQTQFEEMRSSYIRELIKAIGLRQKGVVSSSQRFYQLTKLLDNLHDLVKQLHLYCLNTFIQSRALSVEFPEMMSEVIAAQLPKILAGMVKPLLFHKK
Method: as §1

[5] = target: T2, human progesterone receptor B (PR-B); experiment: Antagonistic activity against promegestone, MTV-LUC reporter in SK-N-MC cells stably transfected with PR-B; format: cell-based; conditions: antagonistic activity vs 0.1 nmol/l promegestone, mean ± SD; for IC50: read-out: Potency IC50, PR-B
Method: as §1

[6] = tested on: 35-day-old rabbits; experiment: Determination of the McPhail index on the rabbit; format: in vivo; conditions: 3 mg/kg/d test substance + 0.2 mg/kg/d progesterone s.c. day 7 to 10, autopsy day 11, 1=no, 4=maximum glandular differentiation
Method: The antigestagenic efficacy of the progesterone receptor antagonists according to the invention was tested on 35-day-old rabbits under conventional housing and feeding conditions.
As a preparatory measure, the animals were treated subcutaneously with 5.0 μg/kg/d with 17β-estradiol from day 1 to day 4. To determine the antigestagenic efficacy, the animals were treated subcutaneously from day 7 to day 10 with 0.2 mg/kg/d of progesterone and 3 mg/kg/d of the test substance (11β-[4-(1,2-Dihydroxyethyl)phenyl]-20,20,21,21,21-pentafluoro-17-hydroxy-19-nor-17α-pregna-4,9-dien-3-one according to Example 1 or 20,20,21,21,21-pentafluoro-17-hydroxy-11β-[4-(hydroxyacetyl)phenyl]-19-nor-17α-pregna-4,9-dien-3-one according to Example 3) simultaneously. The vehicle used was a mixture of benzyl benzoate and castor oil in a ratio of 1+4 (v/v).
The autopsy was performed on day 11 after the start of treatment. The uteri were removed and fixed for histology. The McPhail index (degree of glandular differentiation) was determined by means of light microscopy (evaluation: 1=no glandular differentiation; 4=maximum glandular differentiation) as the parameter of antigestagenic efficacy (inhibition of the glandular differentiation caused by progesterone).

[7] = tested on: pregnant rats; experiment: Abortion test on female rats; format: in vivo, rat; conditions: 1.5 mg/kg subcutaneously daily d5-d7 p.c., autopsy d9 p.c.
Method: The antigestagenic action of the progesterone receptor antagonists according to the invention was tested on pregnant rats (6 rats per group) on days 5 to 7 post coitum under conventional housing and feeding conditions.
After successful copulation, the pregnant animals (presence of sperm in the vaginal smear on day 1 of pregnancy=d1 p.c.) were randomized and divided up into the treatment group and the control group. Each animal was then injected subcutaneously with 1.5 mg/kg of the test substance (11β-[4-(1,2-Dihydroxyethyl)phenyl]-20,20,21,21,21-pentafluoro-17-hydroxy-19-nor-17α-pregna-4,9-dien-3-one according to Example 1 or 20,20,21,21,21-pentafluoro-17-hydroxy-11β-[4-(hydroxyacetyl)phenyl]-19-nor-17α-pregna-4,9-dien-3-one according to Example 3) or 1.0 ml/kg of vehicle (benzyl benzoate/castor oil: 1+4[v/v]) daily from day 5 to day 7 (d5-d7 p.c.).
The autopsy was performed on day 9 (d9 p.c.). As the parameter of antigestagenic action, the uterus was examined for the presence of implantation sites. The complete absence of implantation sites as well as the presence of pathological, hemorrhagic or otherwise abnormal implantation sites on day 9 (d9 p.c.) were evaluated as abortions.

[8] = HLM 1.0 mg/ml, test substance 50 μM

SMILES	selectivity in respect of one progesterone receptor isoform [1]	Efficacy, PR-A [1] [%]	IC50 [1] [pM]	times less potent than 11β-(4-acetylphenyl)-20,20,21,21,21-pentafluoro-17-hydroxy-19-nor-17α-pregna-4,9-dien-3-one at the progesterone receptors [1]	Efficacy, PR-A [2]	recovered in the supernatant (RP-HPLC) [3, 8]	Efficacy, PR-B [4]	Efficacy, PR-B [5] [%]	IC50 [5] [pM]	McPhail index [median] [6]	Abortion rate [7] [%]	recovered in the supernatant (RP-HPLC) ([3]; HLM 0.4 mg/ml, test substance 10 μM) [%]	EC50 ([2]; mean ± SD, read-out: Potency EC50, PR-A) [pM]	EC50 ([4]; mean ± SD, read-out: Potency EC50, PR-B) [pM]
C[C@]12C[C@H](c3ccc(C(O)CO)cc3)C3=C4CCC(=O)C=C4CC[C@H]3[C@@H]1CC[C@@]2(O)C(F)(F)C(F)(F)F (mixture of isomers) [Example 1, 11β-[4-(1,2-dihydroxyethyl)phenyl]-20,20,21,21,21-pentafluoro-17-hydroxy-19-nor-17α-pregna-4,9-dien-3-one]	Neither compound exhibits any selectivity	100 ± 0	1870 ± 230	about 130 times	no effect	about 70%	no effect	100 ± 0	3470 ± 460	1.0	100			
CC(=O)c1ccc([C@H]2C[C@@]3(C)[C@@H](CC[C@@]3(O)C(F)(F)C(F)(F)F)[C@@H]3CCC4=CC(=O)CCC4=C32)cc1 [11β-(4-acetylphenyl)-20,20,21,21,21-pentafluoro-17-hydroxy-19-nor-17α-pregna-4,9-dien-3-one, reference compound]		100 ± 0	14 ± 10					100 ± 0	20 ± 10			60		
C[C@]12C[C@H](c3ccc(C(=O)CO)cc3)C3=C4CCC(=O)C=C4CC[C@H]3[C@@H]1CC[C@@]2(O)C(F)(F)C(F)(F)F [Example 3, 20,20,21,21,21-pentafluoro-17-hydroxy-11β-[4-(hydroxyacetyl)phenyl]-19-nor-17α-pregna-4,9-dien-3-one]	Neither compound exhibits any selectivity	100 ± 0	180 ± 60	about 13 times	no effect	about 80%	no effect	100 ± 0	280 ± 80	1.0	100			
CCC(=O)[C@@]1(C)CC[C@H]2[C@@H]3CCC4=CC(=O)CCC4=C3CC[C@@]21C [Promegestone, promegestone, reference compound]					100%		100%						230 ± 30	30
